Reference: ChEMBL document CHEMBL4765403, “Augmentation of the antitumor effects of PARP inhibitors in triple-negative breast cancer via degradation by hydrophobic tagging modulation” (Eur J Med Chem, 2020)
Activity calls are given as the source filed them. No cut-off for these calls is given here.

Columns and labels:
MDA-MB-231 [1] = test: Induction of endoplasmic reticulum stress in human MDA-MB-231 cells assessed as increase in XBP-1s protein expression at 5 uM measured after 24 to 72 hrs by Western blot analysis; assay type: functional, cell-based; details: time 24-72 hrs
[2] = target: Poly [ADP-ribose] polymerase 1 (Homo sapiens) (UniProt P09874); test: Induction of PARP1 degradation in triple-negative human MDA-MB-231 cells assessed as fold change in PARP1 protein expression at 5 uM incubated for 24 hrs by Western blot analysis relative to control; assay type: cell-based
MDA-MB-231 [3] = test: Induction of endoplasmic reticulum stress in human MDA-MB-231 cells assessed as upregulation in XBP-1s gene expression at 5 to 10 uM incubated for 24 to 48 hrs by RT-PCR analysis; assay type: functional, cell-based; details: dose 5-10 µM, time 24-48 hrs
[4] = target: Poly [ADP-ribose] polymerase 1 (Homo sapiens) (UniProt P09874); test: Induction of PARP1 degradation in triple-negative human MDA-MB-231 cells assessed as fold change in PARP1 protein expression at 0.1 uM incubated for 48 hrs by Western blot analysis relative to control; assay type: cell-based
[5] = target: Poly [ADP-ribose] polymerase 1 (Homo sapiens) (UniProt P09874); test: Induction of PARP1 degradation in human MDA-MB-468 cells assessed as fold change in PARP1 protein expression at 5 uM pretreated for 2 hrs with pan-caspase inhibitor, Z-VAD-FMK followed by incubation with compound for 48 hrs by Western blot analysis relative to control; assay type: cell-based
[6] = target: Poly [ADP-ribose] polymerase 1 (Homo sapiens) (UniProt P09874); test: Induction of PARP1 degradation in human MDA-MB-231 cells assessed as fold change in PARP1 protein expression at 5 uM incubated for 48 hrs in presence of caspase I inhibitor, Ac-YVAD-cmk by Western blot analysis relative to control; assay type: cell-based
[7] = target: Poly [ADP-ribose] polymerase 1 (Homo sapiens) (UniProt P09874); test: Induction of PARP1 degradation in human MDA-MB-468 cells assessed as fold change in PARP1 protein expression at 5 uM incubated for 48 hrs in presence of pan-caspase inhibitor, Z-VAD-FMK by Western blot analysis; assay type: cell-based
[8] = target: Poly [ADP-ribose] polymerase 1 (Homo sapiens) (UniProt P09874); test: Induction of PARP1 degradation in triple-negative human MDA-MB-231 cells assessed as fold change in PARP1 protein expression at 1 uM incubated for 48 hrs by Western blot analysis relative to control; assay type: cell-based
[9] = target: Poly [ADP-ribose] polymerase 1 (Homo sapiens) (UniProt P09874); test: Induction of PARP1 degradation in triple-negative human MDA-MB-231 cells assessed as fold change in PARP1 protein expression at 0.1 uM incubated for 24 hrs by Western blot analysis relative to control; assay type: cell-based
MDA-MB-231 [10] = test: Induction of autophagy in human MDA-MB-231 cells assessed as upregulation in LC3A gene expression at 5 to 10 uM measured after 24 to 48 hrs by RT-PCR analysis; assay type: functional, cell-based; details: dose 5-10 µM, time 24-48 hrs
[11] = target: Poly [ADP-ribose] polymerase 1 (Homo sapiens) (UniProt P09874); test: Induction of PARP1 degradation in triple-negative human MDA-MB-231 cells assessed as fold change in PARP1 protein expression at 0.01 uM incubated for 48 hrs by Western blot analysis relative to control; assay type: cell-based
MDA-MB-468 [12] = test: Cytotoxicity against human MDA-MB-468 cells assessed as reduction in cell viability measured after 96 hrs by CCK8 assay; assay type: functional, cell-based; details: MDA-MB-468, 96 h
[13] = target: Poly [ADP-ribose] polymerase 1 (Homo sapiens) (UniProt P09874); test: Induction of PARP1 degradation in triple negative human MDA-MB-468 cells assessed as fold change in PARP1 protein expression at 5 uM incubated for 48 hrs by Western blot analysis relative to control; assay type: cell-based
MDA-MB-231 [14] = test: Induction of apoptosis in human MDA-MB-231 cells assessed as upregulation in PUMA gene expression at 5 to 10 uM incubated for 24 to 48 hrs by RT-PCR analysis; assay type: functional, cell-based; details: dose 5-10 µM, time 24-48 hrs
[15] = target: Poly [ADP-ribose] polymerase 1 (Homo sapiens) (UniProt P09874); test: Induction of PARP1 degradation in human MDA-MB-231 cells at 5 uM pretreated for 2 hrs with proteasome inhibitor, bortezomib for 2 hrs followed by incubation with compound for 48 hrs by immunoblotting analysis; assay type: cell-based
MDA-MB-468 [16] = test: Induction of endoplasmic reticulum stress in human MDA-MB-468 cells assessed as increase in CHOP protein expression at 5 uM incubated for 48 hrs by Western blot analysis; assay type: functional, cell-based
MDA-MB-231 [17] = test: Induction of apoptosis in human MDA-MB-231 cells assessed as increase in cytochrome C protein expression at 5 uM incubated for 24 to 48 hrs by Western blot analysis; assay type: functional, cell-based; details: time 24-48 hrs
[18] = target: Poly [ADP-ribose] polymerase 1 (Homo sapiens) (UniProt P09874); test: Induction of PARP1 degradation in human HCC1937 cells harboring BRCA mutation assessed as fold change in PARP1 protein expression at 5 uM incubated for 24 hrs by Western blot analysis relative to control; assay type: cell-based
MDA-MB-231 [19] = test: Induction of apoptosis in human MDA-MB-231 cells assessed as downregulation in Bcl2 gene expression at 5 to 10 uM incubated for 24 to 48 hrs by RT-PCR analysis; assay type: functional, cell-based; details: dose 5-10 µM, time 24-48 hrs
MDA-MB-231 [20] = test: Cytotoxicity against triple-negative human MDA-MB-231 cells assessed as reduction in cell viability measured after 48 hrs by CCK8 assay; assay type: functional, cell-based; details: MDA-MB-231, 48 h
[21] = target: Poly [ADP-ribose] polymerase 1 (Homo sapiens) (UniProt P09874); test: Induction of PARP1 degradation in triple-negative human MDA-MB-231 cells assessed as fold change in PARP1 protein expression at 2.5 uM incubated for 48 hrs by Western blot analysis relative to control; assay type: cell-based
MDA-MB-231 [22] = test: Induction of endoplasmic reticulum stress in human MDA-MB-231 cells assessed as increase in CHOP protein expression at 5 uM measured after 24 to 72 hrs by Western blot analysis; assay type: functional, cell-based; details: time 24-72 hrs
[23] = target: Poly [ADP-ribose] polymerase 1 (Homo sapiens) (UniProt P09874); test: Induction of PARP1 degradation in human HCC1937 cells harboring BRCA mutation assessed as fold change in PARP1 protein expression at 5 uM incubated for 48 hrs by Western blot analysis relative to control; assay type: cell-based
MDA-MB-231 [24] = test: Induction of autophagy in human MDA-MB-231 cells assessed as upregulation in LC3B gene expression at 5 to 10 uM measured after 24 to 48 hrs by RT-PCR analysis; assay type: functional, cell-based; details: dose 5-10 µM, time 24-48 hrs
MDA-MB-231 [25] = test: Induction of autophagy in human MDA-MB-231 cells assessed as upregulation in LC3B protein expression at 5 uM measured after 48 to 72 hrs by Western blot analysis; assay type: functional, cell-based; details: time 48-72 hrs
MDA-MB-231 [26] = test: Induction of endoplasmic reticulum stress in human MDA-MB-231 cells assessed as upregulation in CHOP gene expression at 5 to 10 uM incubated for 24 to 48 hrs by RT-PCR analysis; assay type: functional, cell-based; details: dose 5-10 µM, time 24-48 hrs
[27] = target: Poly [ADP-ribose] polymerase 1 (Homo sapiens) (UniProt P09874); test: Induction of PARP1 degradation in triple-negative human MDA-MB-468 cells assessed as fold change in PARP1 protein expression at 5 uM incubated for 24 hrs by Western blot analysis relative to control; assay type: cell-based
MDA-MB-468 [28] = test: Induction of autophagy in human MDA-MB-468 cells assessed as upregulation in LC3B protein expression at 5 uM measured after 48 hrs by Western blot analysis; assay type: functional, cell-based
[29] = target: Poly [ADP-ribose] polymerase 1 (Homo sapiens) (UniProt P09874); test: Induction of PARP1 degradation in triple-negative human MDA-MB-231 cells assessed as fold change in PARP1 protein expression at 1 uM incubated for 24 hrs by Western blot analysis relative to control; assay type: cell-based
MDA-MB-231 [30] = test: Induction of endoplasmic reticulum stress in human MDA-MB-231 cells assessed as upregulation in ATF4 gene expression at 5 to 10 uM incubated for 24 to 48 hrs by RT-PCR analysis; assay type: functional, cell-based; details: dose 5-10 µM, time 24-48 hrs
[31] = target: Poly [ADP-ribose] polymerase 1 (Homo sapiens) (UniProt P09874); test: Induction of PARP1 degradation in human MDA-MB-231 cells at 5 uM pretreated for 2 hrs with proteasome inhibitor, carfilzomib for 2 hrs followed by incubation with compound for 48 hrs by immunoblotting analysis; assay type: cell-based

Poly [ADP-ribose] polymerase 1 (Homo sapiens), sequence (P09874 whole entry): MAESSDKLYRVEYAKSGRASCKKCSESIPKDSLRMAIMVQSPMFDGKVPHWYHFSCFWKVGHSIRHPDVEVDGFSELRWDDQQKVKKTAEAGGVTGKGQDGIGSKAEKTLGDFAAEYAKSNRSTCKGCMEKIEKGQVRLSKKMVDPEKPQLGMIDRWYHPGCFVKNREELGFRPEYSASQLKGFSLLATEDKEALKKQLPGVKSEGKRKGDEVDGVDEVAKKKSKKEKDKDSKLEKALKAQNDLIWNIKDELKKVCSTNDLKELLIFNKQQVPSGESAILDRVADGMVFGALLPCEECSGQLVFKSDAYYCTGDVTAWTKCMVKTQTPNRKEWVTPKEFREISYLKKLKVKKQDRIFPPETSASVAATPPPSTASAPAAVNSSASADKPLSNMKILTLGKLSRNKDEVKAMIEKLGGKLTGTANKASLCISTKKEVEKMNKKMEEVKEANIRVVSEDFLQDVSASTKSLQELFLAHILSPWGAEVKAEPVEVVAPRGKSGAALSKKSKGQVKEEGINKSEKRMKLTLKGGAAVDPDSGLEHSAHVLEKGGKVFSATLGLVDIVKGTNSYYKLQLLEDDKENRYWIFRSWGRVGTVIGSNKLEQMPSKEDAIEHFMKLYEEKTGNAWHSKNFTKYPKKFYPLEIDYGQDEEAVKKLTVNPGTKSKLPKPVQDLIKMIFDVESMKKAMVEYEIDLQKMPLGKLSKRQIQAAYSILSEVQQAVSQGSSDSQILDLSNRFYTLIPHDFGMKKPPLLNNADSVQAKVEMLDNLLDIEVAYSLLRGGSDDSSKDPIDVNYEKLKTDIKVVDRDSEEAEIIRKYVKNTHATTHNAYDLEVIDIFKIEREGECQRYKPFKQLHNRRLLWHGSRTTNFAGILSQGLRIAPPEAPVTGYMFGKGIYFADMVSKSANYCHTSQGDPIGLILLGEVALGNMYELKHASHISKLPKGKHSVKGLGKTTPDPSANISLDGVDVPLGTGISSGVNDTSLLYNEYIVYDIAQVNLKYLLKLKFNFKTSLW

`O=C(CC1c2ccccc2-c2ccccc21)N1CCN(C(=O)c2cc(Cc3n[nH]c(=O)c4ccccc34)ccc2F)CC1` was tested, and the Activity (MDA-MB-231 [1]) was “Active”, the fold change (FC) [2] was 0.8 and the Activity (MDA-MB-231 [3]) was “Active”. It also gave a fold change (FC) [4] of 0.6, a fold change (FC) [5] of 0.4 and a fold change (FC) [6] of 0.3. The fold change (FC) [7] was 0.4, the fold change (FC) [8] was 0.7 and the fold change (FC) [9] was 0.9. For the same compound, the Activity (MDA-MB-231 [10]) was “Active”, the fold change (FC) [11] was 0.7 and the IC50 (MDA-MB-468 [12]) was 5.72 µM. The fold change (FC) [13] was 0.3, the Activity (MDA-MB-231 [14]) was “Active” and the Activity [15] was “inactive”. For the same compound, the Activity (MDA-MB-468 [16]) was “Active”, the Activity (MDA-MB-231 [17]) was “Active” and the fold change (FC) [18] was 0.3. The Activity (MDA-MB-231 [19]) was “Active”, the IC50 (MDA-MB-231 [20]) was 10.6 µM and the fold change (FC) [21] was 0.1. For the same compound, the Activity (MDA-MB-231 [22]) was “Active”, the fold change (FC) [23] was 0 and the Activity (MDA-MB-231 [24]) was “Active”. The Activity (MDA-MB-231 [25]) was “Active”, the Activity (MDA-MB-231 [26]) was “Active” and the fold change (FC) [27] was 0.8. The Activity (MDA-MB-468 [28]) was “Active”, the fold change (FC) [29] was 0.8 and the Activity (MDA-MB-231 [30]) was “Active”. The Activity [31] was “inactive”.
